# Measurements reported in US7902261B2, “Medicinal compositions for preventing or treating viral myocarditis” (Mitsubishi Tanabe Pharma Corporation, priority 1999, dated 2011).
# Where a name gives a salt, the structure may show the parent alone.
# Experiments:
# [1] = system: EMC (Encephalomyocarditis) virus; assay: Survival rate, EMC viral myocarditis in mice (Experimental Example 1); type: in vivo, DBA/2 mice; details: EMC virus 10 pfu i.p., control 0%
# Method: Four-week-old DBA/2 mice were divided into 3 groups, and EMC (Encephalomyocarditis) virus (10 pfu) was intraperitoneally inoculated. After inoculation, distilled water (solvent, group A, n=11) as a control, compound 1 (1 mg/kg/day, group B, n=10), and compound 1 (3 mg/kg/day, group C, n=10) were orally administered forcibly for 14 consecutive days using a probe. The survival rate of each group after 14 days was compared by Kaplan-Meier method.
# [2] = system: EMC (Encephalomyocarditis) virus; assay: Histopathological observation of the heart (Experimental Example 1); type: in vivo, DBA/2 mice; details: n=8, day 5, mean ± SEM; for necrosis of myocardial cell (score 0 to 4+): control 1.9 ± 0.2; for cellular infiltration (score 0 to 4+): control 2.0 ± 0.2
# Method: (§1) Four-week-old DBA/2 mice were divided into 3 groups and EMC (Encephalomyocarditis) virus (10 pfu) was intraperitoneally inoculated. After inoculation, distilled water (solvent, n=9) as a control, compound 1 (3 mg/kg/day, n=8), and compound 1 (10 mg/kg/day, n=8) were orally administered forcibly for 5 consecutive days using a probe. Five days later, the heart was removed, and, after fixing with formalin, subjected to hematoxylin-eosin staining, based on which heart necrosis and cellular infiltration were scored as follows. • 0; no lesion, • 1+; lesion in 25% or less of the heart, • 2+; lesion in more than 25% and not more than 50% of the heart • 3+; lesion in more than 50% and not more than 75% of the heart • 4+; lesion in more than 75% and not more than 100% of the heart Results
# [3] = system: EMC virus; assay: Survival rate, EMC viral myocarditis in mice (Experimental Example 2); type: in vivo, DBA/2 male mice; details: compound 1 10 mg/kg/day orally for 14 days, n=22 (6 survived); control 0%
# Method: The effects on viral myocarditis of compound 1 and an immunosuppressant, cyclosporin A (hereinafter to be referred to as CsA), were compared. The compound 1 was dissolved in sterile distilled water and administered, and CsA was dissolved in olive oil and administered.
# Four-week-old DBA/2 male mice were divided into 3 groups, and EMC virus (10 pfu) was intraperitoneally inoculated. After inoculation, distilled water (solvent, control group, n=21), CsA (40 mg/kg/day, CsA group, n=9), and compound 1 (10 mg/kg/day, compound 1 group, n=22) were orally administered forcibly for 14 consecutive days using a probe. The survival rate of each group after 14 days was compared by Kaplan-Meier method.
# [4] = system: EMC virus; assay: Histopathological observation of the heart (Experimental Example 2); type: in vivo, male DBA/2 mice; details: CsA 40 mg/kg/day, compound 1 10 mg/kg/day orally for 5 days, day 5, mean ± SEM
# Method: as §1
# Four-week-old male DBA/2 mice were divided into 3 groups and EMC virus (10 pfu) was intraperitoneally inoculated. […] Five days later, the heart was harvested, and, after fixing with formalin, subjected to hematoxylin-eosin staining, based on which heart necrosis and cellular infiltration were scored according to the criteria shown in Experimental Example 1.
# The myocardial cell necrosis and cellular infiltration were independently scored by two observers and averaged. […]
# [5] = system: EMC virus; assay: Intracardiac virus titer (plaque assay on human amnion FL cells); type: in vivo, male DBA/2 mice; details: CsA 40 mg/kg/day, compound 1 10 mg/kg/day orally for 5 days; heart at day 5; mean ± SEM; control 5.18 ± 2.73 × 10^6
# Method: (§2) Four-week-old male DBA/2 mice were divided into 3 groups and EMC virus (10 pfu) was intraperitoneally inoculated. After inoculation, distilled water (solvent, n=8) as a control, CsA (40 mg/kg/day, n=5), and compound 1 (10 mg/kg/day, n=7) were orally administered forcibly for 5 consecutive days using a probe. Five days later, the heart was aseptically harvested from the mice, and after weighing the ventricle, homogenized in phosphate-buffered saline (PBS, 1 ml). The homogenate was centrifuged at 4° C., 1,500 g for 15 min and the supernatant (0.1 ml) was inoculated to human amnion FL cell monolayer and cultured at 37° C. for 60 min in 5% CO2. The cells were overlaid with a medium (3 ml) containing 4% fetal calf serum and 1% methylcellulose. After culture under 5% CO2-containing humidified atmosphere at 37° C. for 20 hr, the cells were fixed with acetic acid-methanol (1:2) and stained with 1% crystal violet. The plaques were counted under an inverted microscope (Circulation. 89:846-851, 1994). When the plaques are too many to count, the supernatant is appropriately diluted with Dulbecco's modified Eagle's medium (DMEM) and subjected to a similar assay. The test was repeated and the mean was taken. The virus titer was expressed in pfu/g heart. The statistical analysis was conducted by one way ANOVA and Fisher's protected least significant difference test.
# [6] = system: IL-2; assay: Intracardiac cytokine assay (ELISA), IL-2; type: in vivo, mouse; details: heart ventricle at day 5; CsA 40 mg/kg/day, compound 1 10 mg/kg/day orally; mean ± SEM; control 12.79 ± 1.24
# Method: as §2, with “The test was repeated and the mean was taken. The virus titer was expressed in pfu/g heart. The statistical analysis was conducted by one way ANOVA and Fisher's protected least significant difference test.” left out
# (§3) The total protein concentration of each supernatant was measured by bicinchoninic acid (BCA) method, and the ratio of the cytokine concentration to the total protein concentration was calculated (J. Am. Coll. Cardiol. 33:1400-1407, 1999). […]
# [7] = system: IL-12; assay: Intracardiac cytokine assay (ELISA), IL-12; type: in vivo, mouse; details: heart ventricle at day 5; CsA 40 mg/kg/day, compound 1 10 mg/kg/day orally; mean ± SEM; control 71.76 ± 7.37
# Method: as §2, with “The test was repeated and the mean was taken. The virus titer was expressed in pfu/g heart. The statistical analysis was conducted by one way ANOVA and Fisher's protected least significant difference test.” left out
# as §3
# [8] = system: IFN-γ; assay: Intracardiac cytokine assay (ELISA), IFN-γ; type: in vivo, mouse; details: heart ventricle at day 5; CsA 40 mg/kg/day, compound 1 10 mg/kg/day orally; mean ± SEM; control 151.20 ± 15.66
# Method: as §2, with “The test was repeated and the mean was taken. The virus titer was expressed in pfu/g heart. The statistical analysis was conducted by one way ANOVA and Fisher's protected least significant difference test.” left out
# as §3
# [9] = system: TNF-α; assay: Intracardiac cytokine assay (ELISA), TNF-α; type: in vivo, mouse; details: heart ventricle at day 5; CsA 40 mg/kg/day, compound 1 10 mg/kg/day orally; mean ± SEM; control 4.11 ± 0.11
# Method: as §2, with “The test was repeated and the mean was taken. The virus titer was expressed in pfu/g heart. The statistical analysis was conducted by one way ANOVA and Fisher's protected least significant difference test.” left out
# as §3
# [10] = system: NO; assay: Intracardiac nitric oxide (NO) assay (modified Griess method); type: in vivo, mouse; details: heart ventricle at day 5; CsA 40 mg/kg/day, compound 1 10 mg/kg/day orally; mean ± SEM; control 2.07 ± 0.20
# Method: Four-week-old male DBA/2 mice were divided into 3 groups and EMC virus (10 pfu) was intraperitoneally inoculated. After inoculation, distilled water (solvent, n=8) as a control, CsA (40 mg/kg/day, n=5), and compound 1 (10 mg/kg/day, n=7) were orally administered forcibly for 5 consecutive days using a probe. Five days later, the heart was aseptically harvested from the mice, and after weighing the ventricle, homogenized in phosphate-buffered saline (PBS, 1 ml). The homogenate was centrifuged at 4° C., 1,500 g for 15 min and the supernatant (0.1 ml) was inoculated to human amnion FL cell monolayer and cultured at 37° C. for 60 min in 5% CO2. The cells were overlaid with a medium (3 ml) containing 4% fetal calf serum and 1% methylcellulose. […] The plaques were counted under an inverted microscope (Circulation. 89:846-851, 1994). […]
# The intracardiac NO content was measured using the same supernatant as used for the cytokine assay according to a modified method of Griess method (J. Am. Coll. Cardiol. 33:1400-1407, 1999; Anal. Biochem. 224:502-508, 1995). […] Optical density at 540 nm was measured using a microplate reader. The nitrite concentration of each sample was calculated based on the standard product. […] The intracardiac NO content was determined by dividing each nitrite concentration by the total protein concentration of each supernatant and expressed in μM/mg total protein. […]
structure (smiles),measurement,setting,value
"CCCCCCCCc1ccc(CCC(N)(CO)CO)cc1 [compound 1, 2-Amino-2-(2-(4-octylphenyl)ethyl)propane-1,3-diol hydrochloride]",survival rate at day 14,"[1]; 1 mg/kg/day orally for 14 days (group B, n=10)",10%
same,survival rate at day 14,"[1]; 3 mg/kg/day orally for 14 days (group C, n=10), p<0.05",30%
same,necrosis of myocardial cell (score 0 to 4+),[2]; 3 mg/kg/day orally for 5 days,1.7 ± 0.4
same,cellular infiltration (score 0 to 4+),[2]; 3 mg/kg/day orally for 5 days,1.6 ± 0.2
same,necrosis of myocardial cell (score 0 to 4+),[2]; 10 mg/kg/day orally for 5 days,1.0 ± 0.2
same,cellular infiltration (score 0 to 4+),[2]; 10 mg/kg/day orally for 5 days,1.1 ± 0.2
same,survival rate at day 14,[3],27%
same,necrosis of myocardial cell (score 0 to 4+),[4]; control 1.89 ± 0.23,1.00 ± 0.19
same,cellular infiltration (score 0 to 4+),[4]; control 2.00 ± 0.19,1.06 ± 0.19
same,virus titer,[5],1.23 ± 0.53 × 10^7 (NS) pfu/g heart
same,IL-2,[6],6.06 ± 0.67 ng/mg total protein
same,IL-12,[7],46.00 ± 12.82 pg/mg total protein
same,IFN-γ,[8],108.86 ± 12.98 pg/mg total protein
same,TNF-α,[9],3.72 ± 0.25 ng/mg total protein
same,NO content,[10],1.91 ± 0.34 μM/mg total protein
